Experimental data reported in patent publication US8513270B2, “Substituted heterocycles as Janus kinase inhibitors” (Incyte Corporation, priority 2006, dated 2013).
Counter-ions that a name gives are not always drawn. Like-named read-outs stand apart in the source and are kept apart here.

Key:
[1] = target: T1, human JAK2 (a.a. 828-1132) (Homo sapiens, UniProt O60674); assay: In vitro JAK kinase assay (HTRF), JAK2; assay type: biochemical; details: JAK2, 30 μM ATP; read-out: EXAMPLE A HTS-JAK2 HTRF-2 IC50
T1 construct: JAK2 (a.a. 828-1132); His tag (N); made in house; host or cells: insect cells (baculovirus)
T1 sequence (O60674 828-1132): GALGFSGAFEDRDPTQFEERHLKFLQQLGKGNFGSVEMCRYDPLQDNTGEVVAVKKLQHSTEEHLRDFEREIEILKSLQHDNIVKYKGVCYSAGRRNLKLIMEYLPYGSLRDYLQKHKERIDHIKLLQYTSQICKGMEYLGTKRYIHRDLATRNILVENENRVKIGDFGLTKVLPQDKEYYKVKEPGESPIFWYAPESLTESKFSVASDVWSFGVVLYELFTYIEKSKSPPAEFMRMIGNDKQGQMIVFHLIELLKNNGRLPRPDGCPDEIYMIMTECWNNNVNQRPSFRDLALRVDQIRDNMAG
Procedure, shortened: (§1)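 His-tagged catalytic domains from baculovirus-infected insect cells phosphorylated 500 nM biotinylated peptide in 50 mM Tris pH 7.8, 100 mM NaCl, 5 mM DTT, 0.01% BSA for 1 h at room temperature. ATP was 90 μM (JAK1), 30 μM (JAK2), 3 μM (JAK3). Detection used Eu-Py20/SA-APC; IC50s were derived.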

[2] = target: T2, human JAK1 (a.a. 837-1142) (Homo sapiens, UniProt P23458); assay: In vitro JAK kinase assay (HTRF), JAK1; assay type: biochemical; details: JAK1, 90 μM ATP; read-out: EXAMPLE A JAK2-JAK1 HTRF-2 IC50
T2 construct: human JAK1 (a.a. 837-1142); His tag (N); made in house; host or cells: insect cells (baculovirus)
T2 sequence (P23458 849-1154): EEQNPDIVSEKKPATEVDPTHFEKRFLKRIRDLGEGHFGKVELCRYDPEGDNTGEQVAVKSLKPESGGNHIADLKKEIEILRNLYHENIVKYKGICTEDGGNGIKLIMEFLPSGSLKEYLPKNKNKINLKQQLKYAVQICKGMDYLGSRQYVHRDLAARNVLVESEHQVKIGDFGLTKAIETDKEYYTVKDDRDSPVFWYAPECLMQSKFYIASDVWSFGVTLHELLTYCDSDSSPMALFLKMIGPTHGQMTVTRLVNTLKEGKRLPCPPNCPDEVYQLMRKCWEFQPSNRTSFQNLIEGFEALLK
Procedure, shortened: as §1

[3] = target: T3, human JAK3 (a.a. 781-1124) (Homo sapiens, UniProt P52333); assay: In vitro JAK kinase assay (HTRF), JAK3; assay type: biochemical; details: JAK3, 3 μM ATP; read-out: EXAMPLE A JAK2-JAK3 HTRF-2 IC50
T3 construct: JAK3 (a.a. 781-1124); His tag (N); made in house; host or cells: insect cells (baculovirus)
T3 sequence (P52333 781-1124): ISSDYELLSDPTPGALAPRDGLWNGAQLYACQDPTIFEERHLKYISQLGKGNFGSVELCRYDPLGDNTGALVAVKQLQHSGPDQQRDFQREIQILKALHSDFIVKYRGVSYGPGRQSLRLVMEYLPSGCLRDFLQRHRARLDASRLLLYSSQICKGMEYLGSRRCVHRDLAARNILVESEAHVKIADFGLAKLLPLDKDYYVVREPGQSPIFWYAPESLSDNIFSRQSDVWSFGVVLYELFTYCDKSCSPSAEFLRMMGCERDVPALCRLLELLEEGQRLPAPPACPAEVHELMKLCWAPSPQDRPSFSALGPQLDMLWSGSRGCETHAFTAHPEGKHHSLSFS
Procedure, shortened: as §1

TF1-BCRABL1 cells = TF1-BCRABL1 cells (Homo sapiens, UniProt P00519); assay: ABL1 cell based assay: viability of ABL1-dependent cell line (CellTiter-Glo)
Procedure, shortened: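 ABL1-dependent cells plated at 3000 per well in RPMI 1640 with 10% FBS and exposed to compounds for 72 h at 37° C, 5% CO2, 0.2% DMSO final. Viability read by CellTiter-Glo luminescence; duplicate or more.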

ABL1 kinase (wild-type) = target: T4, ABL1 kinase (wild-type) (Homo sapiens, UniProt P00519); assay: ABL1 HTRF assay (wild-type); assay type: biochemical; details: 35 μM ATP; read-out: EXAMPLE G WT Abl IC50
T4 construct: The catalytic domains of ABL1 kinases (residues 27 to the C-termini) were N-terminal His tagged; His tag (N); purchased Upstate Cell Signaling Solutions; host or cells: insect cells (baculovirus)
Protocol: (§2) Compounds herein described were tested for inhibitory activity of ABL1 kinase (wild-type and T315I mutant) as described below. The catalytic domains of ABL1 kinases (residues 27 to the C-termini) were N-terminal His tagged and expressed by baculovirus in insect cells and purified. These were purchased in purified form from Upstate Cell Signaling Solutions. ABL1 and T315I ABL1 catalyze the phosphorylation of p28. The phosphorylated p28 is detected by Homogeneous Time Resolved Fluorescence (HTRF). IC50s of compounds were measured for each kinase in the reactions that contain: 1-2 nM ABL1 or T315I ABL1, 500 nM peptide, 35 μM ATP for ABL1 and 10 μM ATP for T315I ABL1, 2.0% DMSO in assay buffer containing 50 mM Tris, pH 7.8, 100 mM NaCl, 10 mM MgCl2, 5 mM DTT, 0.6 mg/mL BSA. Reactions proceed at room temperature for one and half hour and were stopped by adding, 20 μL additional 50 mM NaCl, 0.4 mg/mL BSA, 45 mM EDTA, 200 nM SA-APC, 4 nM Eu—Py20 in assay buffer. The plates were incubated at room temperature for 40 min and HTRF was then measured on a plate reader.

T315I ABL1 = target: T5, T315I ABL1 (Homo sapiens, UniProt P00519, T315I); assay: T315I ABL1 HTRF assay; assay type: biochemical; details: 10 μM ATP; read-out: EXAMPLE G T315I Abl IC50
T5 construct: The catalytic domains of ABL1 kinases (residues 27 to the C-termini) were N-terminal His tagged; His tag (N); purchased Upstate Cell Signaling Solutions; host or cells: insect cells (baculovirus)
Protocol: as §2

[4] = system: JAK2_INA61 (cancer cell line dependent on cytokines and JAK/STAT signal transduction); assay: Cellular assay: viability of cytokine-dependent cancer cell line (CellTiter-Glo); assay type: cell-based; details: 72 hours, read-out: EXAMPLE B JAK2_INA61 IC50
Protocol: One or more compounds herein were tested for inhibitory activity of JAK targets according to at least one of the following cellular assays.
Compounds were added to the cells in DMSO/media (final concentration 0.2% DMSO) and incubated for 72 hours at 37° C., 5% CO2. The effect of compound on cell viability was assessed using the CellTiter-Glo Luminescent Cell Viability Assay (Promega) followed by TopCount (Perkin Elmer, Boston, Mass.) quantitation. Potential off-target effects of compounds were measured in parallel using a non-JAK driven cell line with the same assay readout. […] All experiments were performed in duplicate.

[5] = 72 hours, cell viability, read-out: EXAMPLE F JAK2-TF1-BCRABL1 IC50
[6] = TF1_BCRABL cells, read-out: EXAMPLE H TF1_BCRABL IC50

Row | IC50 [1] [µM] | IC50 [2] [µM] | IC50 [3] [µM] | IC50 (ABL1 kinase (wild-type)) [µM] | IC50 (T315I ABL1) [µM] | IC50 [4] [µM] | SMILES | GI50 (TF1-BCRABL1 cells; [5]) [µM] | GI50 (TF1-BCRABL1 cells; [6]) [µM]
1 | ≤ 0.5 | ≤ 0.5 | ≤ 0.5 | < 0.2 | < 0.19 | – | Cc1ccc(NC(=O)c2cc(N3CCN(C)CC3)cc(C(F)(F)F)c2)cc1-c1ccc2c(c1)[nH]c1ncncc12 [Example 26, 3-(4-Methylpiperazin-1-yl)-N-[4-methyl-3-(9H-pyrimido[4,5-b]indol-7-yl)phenyl]-5-(trifluoromethyl)benzamide bis(trifluoroacetate)] | ≤ 0.5 | < 0.18
2 | ≤ 0.5 | ≤ 0.5 | ≤ 0.5 | < 0.2 | < 0.19 | 0.5 to 1 | Cc1ccc(C(=O)Nc2cncc(C(F)(F)F)c2)cc1-c1ccc2c(c1)[nH]c1ncncc12 [Example 66, 4-Methyl-3-(9H-pyrimido[4,5-b]indol-7-yl)-N-[5-(trifluoromethyl)pyridin-3-yl]-benzamide] | ≤ 0.5 | < 0.18
3 | ≤ 0.5 | ≤ 0.5 | ≤ 0.5 | < 0.2 | < 0.19 | 0.5 to 1 | Cc1ccc(C(=O)Nc2cccc(C(F)(F)F)c2)cc1-c1ccc2c(c1)[nH]c1ncncc12 [Example 52, 4-methyl-3-(9H-pyrimido-[4,5-b]indol-7-yl)-N-[3-(trifluoromethyl)phenyl]benzamide] | ≤ 0.5 | < 0.18
4 | ≤ 0.5 | ≤ 0.5 | ≤ 0.5 | < 0.2 | < 0.19 | 0.5 to 1 | O=C(Nc1cccc(C(F)(F)F)c1)c1ccc(Cl)c(-c2ccc3c(c2)[nH]c2ncncc23)c1 [Example 58, 4-chloro-3-(9H-pyrimido-[4,5-b]indol-7-yl)-N-[3-(trifluoromethyl)phenyl]-benzamide] | ≤ 0.5 | < 0.18
5 | ≤ 0.5 | ≤ 0.5 | ≤ 0.5 | – | – | ≤ 0.5 | Cc1ccc(NC(=O)c2cc(F)cc(C(F)(F)F)c2)cc1-c1ccc2c(c1)[nH]c1ncncc12 [Example 19, 3-Fluoro-N-[4-methyl-3-(9H-pyrimido[4,5-b]indol-7-yl)phenyl]-5-(trifluoro-methyl)benzamide] | ≤ 0.5 | –
6 | ≤ 0.5 | ≤ 0.5 | ≤ 0.5 | – | – | 0.5 to 1 | Cc1cn(-c2cc(NC(=O)c3ccc(C)c(-c4ccc5c(c4)[nH]c4ncncc45)c3)cc(C(F)(F)F)c2)cn1 [Example 62, 4-methyl-N-[3-(4-methyl-1H-imidazol-1-yl)-5-(trifluoro-methyl)phenyl]-3-(9H-pyrimido[4,5-b]indol-7-yl)-benzamide] | ≤ 0.5 | –
7 | ≤ 0.5 | ≤ 0.5 | 0.5 to 1 | – | – | > 1 | Cc1ccc(NC(=O)c2ccc(F)c(C(F)(F)F)c2)cc1-c1ccc2[nH]c3ncncc3c2c1 [Example 42, 4-fluoro-N-[4-methyl-3-(9H-pyrimido[4,5-b]indol-6-yl)-phenyl]-3-(trifluoromethyl)-benzamide] | ≤ 0.5 | –
8 | ≤ 0.5 | ≤ 0.5 | ≤ 0.5 | – | – | 0.5 to 1 | Cc1ccc(NC(=O)c2cccc(S(F)(F)(F)(F)F)c2)cc1-c1ccc2c(c1)[nH]c1ncncc12 [Example 16, N-[4-methyl-3-(9H-pyrimido-[4,5-b]indol-7-yl)phenyl]-3-(pentafluoro-λ(6)-sulfanyl)-benzamide] | ≤ 0.5 | –
9 | ≤ 0.5 | ≤ 0.5 | ≤ 0.5 | – | – | 0.5 to 1 | Cc1cn(-c2cc(C(=O)Nc3ccc(C)c(-c4ccc5c(c4)[nH]c4ncncc45)c3)cc(C(F)(F)F)c2)cn1 [Example 2, 3-(4-Methyl-1H-imidazol-1-yl)-N-[4-methyl-3-(9H-pyrimido[4,5-b]indol-7-yl)-phenyl]-5-(trifluoromethyl)benzamide bis(trifluoroacetate)] | ≤ 0.5 | –
10 | ≤ 0.5 | ≤ 0.5 | 0.5 to 1 | < 0.2 | < 0.19 | ≤ 0.5 | Cc1ccc(NC(=O)c2cccc(C(F)(F)F)c2)cc1-c1ccc2[nH]c3ncncc3c2c1 [Example 40, N-[4-Methyl-3-(9H-pyrimido[4,5-b]indol-6-yl)phenyl]-3-(trifluoromethyl)benzamide] | ≤ 0.5 | < 0.18
11 | ≤ 0.5 | ≤ 0.5 | ≤ 0.5 | – | – | 0.5 to 1 | Cc1ccc(C(=O)Nc2cccc(S(F)(F)(F)(F)F)c2)cc1-c1ccc2c(c1)[nH]c1ncncc12 [Example 65, 4-methyl-N-[3-(pentafluoro-λ(6)-sulfanyl)phenyl]-3-(9H-pyrimido[4,5-b]indol-7-yl)-benzamide] | ≤ 0.5 | –
12 | ≤ 0.5 | ≤ 0.5 | ≤ 0.5 | – | – | ≤ 0.5 | Cc1ccc(NC(=O)c2cccc(Cl)c2)cc1-c1ccc2c(c1)[nH]c1ncncc12 [Example 15, 3-chloro-N-[4-methyl-3-(9H-pyrimido[4,5-b]indol-7-yl)-phenyl]benzamide] | ≤ 0.5 | –
13 | ≤ 0.5 | ≤ 0.5 | ≤ 0.5 | – | – | 0.5 to 1 | Cc1ccc(NC(=O)c2cc(NCCN(C)C)cc(C(F)(F)F)c2)cc1-c1ccc2c(c1)[nH]c1ncncc12 [Example 38, 3-{[2-(dimethylamino)ethyl]-amino}-N-[4-methyl-3-(9H-pyrimido [4,5-b]indol-7-yl)-phenyl]-5-(trifluoromethyl) benzamide] | ≤ 0.5 | –
14 | ≤ 0.5 | ≤ 0.5 | ≤ 0.5 | – | – | ≤ 0.5 | Cc1ccc(NC(=O)c2cccc(C(F)(F)F)c2)cc1-c1ccc2c(c1)[nH]c1ncncc12 [Example 1, N-[4-Methyl-3-(9H-pyrimido[4,5-b]indol-7-yl)phenyl]-3-(trifluoromethyl)benzamide trifluoroacetate] | ≤ 0.5 | –
15 | ≤ 0.5 | ≤ 0.5 | > 1 | – | – | > 1 | O=C(Nc1cccc(-c2ccc3c(c2)[nH]c2ncncc23)c1)c1cccc(C(F)(F)F)c1 [Example 14, N-[3-(9H-pyrimido[4,5-b]-indol-7-yl)phenyl]-3-(trifluoro-methyl)benzamide] | 0.5 to 1 | –
16 | > 1 | > 1 | ≤ 0.5 | – | – | > 1 | Cc1ccc(C(=O)NCc2cccc(C(F)(F)F)c2)cc1-c1ccc2c(c1)[nH]c1ncncc12 [Example 56, 4-methyl-3-(9H-pyrimido-[4,5-b]indol-7-yl)-N-[3-(trifluoromethyl)benzyl]-benzamide] | ≤ 0.5 | –
17 | ≤ 0.5 | ≤ 0.5 | 0.5 to 1 | – | – | > 1 | COc1ccc(C(=O)Nc2cccc(C(F)(F)F)c2)cc1-c1ccc2c(c1)[nH]c1ncncc12 [Example 60, 4-methoxy-3-(9H-pyrimido-[4,5-b]indol-7-yl)-N-[3-(trifluoromethyl)phenyl]-benzamide] | ≤ 0.5 | –
